Test results from patent publication US20260356860A1, “2-SUBSTITUTED 3,4A,5,7,8,8A-HEXAHYDRO-4H-THIOPYRANO[4,3-DJPYRIMIDIN-4-ONES FOR WOUND TREATMENT” (priority 2022, published 2026).
Where “and” joins values, the source holds several entries; their conditions need not be identical. Equal entries are not always repeated.

How the values were obtained:
[1] = test system: bacteria; assay: Bacteriostasis: growth inhibition over the panel of bacteria; type: cell-based; details: 72 h
Protocol: In order to assess the log reduction capabilities of compounds of Formula (1), testing was performed on organisms that are found in acute and chronic wounds. Triplicate tubes were prepared for each bacteria using 50 μL of inoculum (about 1×10^6 CFU/mL) which was added to 450 μL of compound solution (compound of Formula (I)) (or 100 μL of inoculum in 900 μL of compound solution), resulting in a final inoculum of about 1×10^5 CFU/mL, as shown in Table 4.
Tubes were mixed with a vortex and then incubated in a shaking incubator at 175 RPM and 35° C. to 37° C.
For Compounds 1, 7, 8, 10, and 18 in Tables 6, 7-A, 7-B, 8, 9, 10-A, 10-B, and 11: The compound solutions were prepared with compound (30 mg), polysorbate 20 (1.6 mL), butylene glycol (1.6 mL), phosphatidyl choline (0.66 g), ethanol (1.6 mL), hydroxypropyl cellulose (0.26 g), and ultra pure water (24.9 mL).
Testing was performed at two time points: 18 to 24 hours, and […].

[2] = test system: new porcine skin; assay: Elasticity of healed wound; type: in vivo; details: day 21; for Elasticity, Mean / Elasticity, individual values: topical
Protocol: (§1) Additional tests were performed including elasticity (Table 12); max force (Table 13); tensile strength (strain) (Table 14); energy peak (Table 15); rete-ridge formation; and collagen organization (plane polarized light) (FIG. 24) of the healed wound sites, described as follows.
(§2) A is saline (control), B is serum formulation (vehicle), C is GO-HA (vehicle), D is Compound 1; E is Compound 1+GO-HA; F is Compound 8; G is Compound 8+GO-HA; H is Compound 10; and J is Compound 10+GO-HA.
Elasticity (N/mm) is the ability of a material to return to its original shape after stress has been removed. All compounds of Formula (I) tested with or without GO-HA ranged from 33% to 99% improvement in elasticity compared to the saline control.

[3] = test system: P. vulgaris (derived from ATCC ® 8427 ™); assay: Bacteriostasis, log reduction; type: cell-based; details: P. vulgaris ATCC 8427
[4] = test system: P. aeruginosa (derived from ATCC ® 9027 ™); assay: Bacteriostasis, log reduction; type: cell-based; details: P. aeruginosa ATCC 9027
[5] = test system: new porcine skin; assay: Strain (tensile strength) of healed wound; type: in vivo; details: day 21; for Strain (tensile strength) / Strain (tensile strength), Mean: topical
Protocol: as §1, §2
Strain (tensile strength) (N/mm^2) is the force required to pull/stretch a material to a breaking point. A 20% improvement over saline considered good. All compounds of Formula (I) tested with or without GO-HA ranged from 36% to 142% improvement in tensile strength compared to the saline control.

[6] = test system: full thickness excisional wounds; assay: Rete ridge formation (full thickness wound healing study); type: in vivo, Yucatan Miniature Swine; details: rete ridge/mm
Protocol: A 21-day full thickness open excisional wound healing study was conducted on Yucatan™ Miniature Swine (Sinclair BioResources, Auxvasse, Missouri, USA) to evaluate the efficacy of healing and local tissue reaction of compounds of Formula (I). Compounds and controls were topically administered on full thickness open excisional wounds once every other day (total 11 doses).
as §1
Improved rete ridge formation is described as epithelial extensions that project into the underlying connective tissue in both skin and mucous membrances—improved rete ridge formation is a sign of tissue regeneration rather than fibrosis/scarring (reduced rete ridge formation).

[7] = test system: 8 mm ear punch wound; assay: Rabbit ear punch: rate of ear closure; type: in vivo; details: after day 4; phospholipid spray
Protocol: Compounds of Formula (I) were tested and compared to saline control in elastic cartilage regeneration tests. Rabbit ears were punched through and through with an 8 mm punch. 4 holes were punched in each ear of the specimen (four positions L1, L2, L3, and L4 in the left ear and four positions R5, R6, R7, and R8 in right ear). Saline was applied via a spray on the control specimen, Compound 8 was applied via a phospholipid spray on another specimen, and Compound 18 was applied via a phospholipid spray on yet another specimen. The phospholipid spray contained compound (45 mg), butylene glycol (2 mL), polysorbate 20 (2 mL), phosphotidyl choline (0.5 g), ethanol (2 mL), and ultra pure water (40 mL).
FIG. 4 provides photographs of the wounds after treatment with saline, compound 8, or compound 18 on Days 0 and 23. Ear punch area related to wound closure was measured at 2- to 3-day intervals from day 0 to day 39.

Row | SMILES | number of bacteria with inhibited growth ([1]; test 1) | Elasticity, Mean [2] | Elasticity, individual values [2] | Average result ([3]; 24 h) | Log Reduction ([3]; 24 h) | Log Value ([3]; 24 h) | Average result ([3]; 72 h) | Log Reduction ([3]; 72 h) | Log Value ([3]; 72 h) | Average result ([4]; 24 h) | Log Reduction ([4]; 24 h) | Log Value ([4]; 24 h) | Average result ([4]; 72 h) | Log Reduction ([4]; 72 h) | Log Value ([4]; 72 h) | Strain (tensile strength) ([5]; individual value 1) | Strain (tensile strength) ([5]; individual value 2) | Strain (tensile strength) ([5]; individual value 3) | Strain (tensile strength) ([5]; individual value 4) | Strain (tensile strength), Mean [5] | further results
1 | O=c1[nH]c(-c2ccc(B(O)O)cc2)nc2c1CSCC2 [Compound 1, (4-(4-oxo-3,5,7,8-tetrahydro-4H-thiopyrano[4,3-d]pyrimidin-2-yl)phenyl)boronic acid] | 6 of 7 | 37.628 N/mm | 39.593 N/mm and 27.299 N/mm and 33.002 N/mm and 50.617 N/mm | <200 | >3.6 | <2.3 | <200 | >3.6 | <2.3 | <200 | >3.0 | <2.3 | <200 | >3.0 | <2.3 | 2.568 N/mm^2 | 3.906 N/mm^2 | 10.226 N/mm^2 | 5.738 N/mm^2 | 5.609 N/mm^2 | number of bacteria with inhibited growth ([1]; test 2): 7 of 7
2 | O=c1[nH]c(-c2ccc(-c3ccc(Br)nc3)cc2)nc2c1CSCC2 [Compound 7, 2-(4-(6-bromopyridin-3-yl)phenyl)-3,5,7,8-tetrahydro-4H-thiopyrano [4,3-d]pyrimidin-4-one] | – | – | – | – | – | – | – | – | – | – | – | – | – | – | – | – | – | – | – | – | number of bacteria with inhibited growth [1]: 4 of 7; rete ridge formation compared to the saline control [6]: improved wound healing compared to the saline control (rete ridge/mm)
3 | CC(C)(OCCO)c1ccc(-c2nc3c(c(=O)[nH]2)CSCC3)cc1 [Compound 8, 2-(4-(2-(2-hydroxyethoxy)propan-2-yl)phenyl)-3,5,7,8-tetrahydro-4H-thiopyrano[4,3-d]pyrimidin-4-one] | – | 40.080 N/mm | 47.748 N/mm and 22.23 N/mm and 55.607 N/mm and 46.485 N/mm and 28.331 N/mm | – | – | – | – | – | – | – | – | – | – | – | – | 7.640 N/mm^2 | 4.427 N/mm^2 | 2.939 N/mm^2 | 6.900 N/mm^2 | 4.964 N/mm^2 | number of bacteria with inhibited growth [1]: 5 of 7; rate of ear closure versus control [7]: improved the rate of ear closure over the control; rete ridge formation compared to the saline control [6]: improved wound healing compared to the saline control (rete ridge/mm); Strain (tensile strength) ([5]; individual value 5): 2.913 N/mm^2
4 | O=c1[nH]c(-c2ccc(-c3ccc(B(O)O)cc3)cc2)nc2c1CSCC2 [Compound 10, (4′-(4-oxo-3,5,7,8-tetrahydro-4H-thiopyrano[4,3-d]pyrimidin-2-yl)-[1,1′-biphenyl]-4-yl)boronic acid] | 7 of 7 | 53.682 N/mm | 43.004 N/mm and 52.568 N/mm and 74.191 N/mm and 44.962 N/mm | <200 | >3.6 | <2.3 | <200 | >3.6 | <2.3 | <200 | >3.0 | <2.3 | <200 | >3.0 | <2.3 | 6.792 N/mm^2 | 11.592 N/mm^2 | 5.862 N/mm^2 | 5.506 N/mm^2 | 7.438 N/mm^2 | number of bacteria with inhibited growth ([1]; test 2): 7 of 7; improvement in elasticity compared to the saline control [2]: 91%; improvement in tensile strength (strain) compared to the saline control [5]: 105%
5 | COC(=O)NCCOC(C)(C)c1ccc(-c2nc3c(c(=O)[nH]2)CSCC3)cc1 [Compound 18, methyl (2-((2-(4-(4-oxo-3,5,7,8-tetrahydro-4H-thiopyrano[4,3-d]pyrimidin-2-yl)phenyl)propan-2-yl)oxy)ethyl)carbamate] | 14 of 15 | – | – | <200 | >3.6 | <2.3 | <200 | >3.6 | <2.3 | <200 | >2.5 | <2.3 | <200 | >2.5 | <2.3 | – | – | – | – | – | rate of ear closure versus control [7]: improved the rate of ear closure over the control
